Drawing on PubChem BioAssay (NCI), this text covers TGI for seven molecules.

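Protocol summary: plate cells (96-well), add compound at 5 concentrations, incubate 48 h, interpolate endpoints linearly. TGI marks complete inhibition of growth.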

What all share (assay): NCI anticancer screen, dose series, 48 h
In assay [1] the test system is A498 renal.
Assay [2] has as its system CCRF-CEM leukemia.
The subject of assay [3] is DU-145 prostate.
Assay [4] has as its system HCC-2998 colon.
Assay [5] has as its system HCT-116 colon.
The subject of assay [6] is HCT-15 colon.
Assay [7] concerns IGROV1 ovarian.
Assay [8] has as its system MOLT-4 leukemia.
Assay [9] relates to NCI-H226 lung.
The subject of assay [10] is NCI-H23 lung.
For assay [11], the system named is RXF 393 renal.
For assay [12], the system named is SK-MEL-28 melanoma.
For assay [13], the system named is SK-MEL-5 melanoma.
The subject of assay [14] is SNB-75 CNS.
For assay [15], the system named is UACC-257 melanoma.
The subject of assay [16] is UACC-62 melanoma.
Assay [17] has as its system UO-31 renal.
The test system of assay [18] is NCI/ADR-RES ovarian.

For the molecule `CC1C(O)Oc2cc3c(cc2C1c1ccccc1O)OCO3` (configuration not stated), the TGI is 82.7 µM in [1]; 51.2 µM in assay [2]; above 100 µM in assay [3]; above 100 µM in [4]; 35.5 µM in assay [5]; above 100 µM in assay [6]. Moreover, the TGI in [7] is above 100 µM; in assay [8], 61.7 µM; in assay [9], 69.2 µM; in assay [10], above 100 µM; in [11], 48.4 µM; in [12] it was 84 µM. Besides, the TGI in assay [13] was 98.5 µM; in [14], 87.4 µM; in [15], above 100 µM; in assay [16], above 100 µM; in assay [17] it was above 100 µM.

Take `Cc1ccc(S(=O)(=O)Nn2c(O)c(C#N)c(-c3ccc(N(C)C)cc3)c(C#N)c2=O)cc1`: the TGI in assay [1], in [2], in assay [4], in assay [5], in assay [6] and in assay [7] was above 50 µM each time. Besides, the TGI in assay [8], in [9], in [18], in assay [11], in assay [12] and in assay [13] was above 50 µM throughout. Further, the TGI in [14], in assay [15] and in assay [16] was above 50 µM each time.

As for `Cn1c(=O)n2n(c1=O)[C@@H](c1ccccc1)[C@H]2c1ccccc1`, the TGI in assay [1], in assay [2], in assay [4], in [5], in assay [6] and in [7] was above 100 µM in each case. The TGI in assay [8], in assay [9], in [10], in [18], in assay [11] and in [12] was above 100 µM each time. Further, the TGI in assay [13], in [14], in assay [15], in assay [16] and in assay [17] was above 100 µM throughout.

Take `COc1ccc(C(SCC(N)C(=O)O)(c2ccc(OC)cc2)c2ccc(OC)cc2)cc1` (configuration not stated): the TGI in [1] is 22.7 µM; in [2], above 31.6 µM; in assay [4], 17.4 µM; in assay [5], 15.6 µM; in [6], 18.1 µM; in assay [7] it was 20.2 µM. In addition, the TGI was 24 µM in assay [8]; 18.3 µM in [9]; 20.6 µM in [10]; 19.4 µM in [18]; 15.6 µM in assay [11]; 16.8 µM in assay [12]. In addition, the TGI in assay [14] was found to be 19.4 µM; in [15], 17.3 µM; in assay [16], 15.7 µM; in assay [17], 20 µM.

Take `COc1cccc(C2c3cc4c(cc3OC(N3CCCCC3)C2C)OCO4)c1OC` (configuration not stated): the TGI in assay [1] stood at 28.4 µM; in [2] it was 15.2 µM; in assay [3] it was 25.5 µM; in assay [4], 33 µM; in assay [5], 12.1 µM; in assay [6] it was 26.3 µM. Further, the TGI came out at 61.7 µM in assay [7]; 30.4 µM in assay [8]; 34.8 µM in [9]; 71.3 µM in assay [10]; 28.2 µM in [11]; 46.7 µM in [12]. Also, the TGI in [13] amounted to 21.5 µM; in [14] it was 66.7 µM; in assay [15] it was 36.2 µM; in [16] it was 33.6 µM; in assay [17], 48.6 µM.

For the molecule `CC1(O)Oc2ccc3ccccc3c2C=C1C(N)=O` (configuration not stated), the TGI in [1], in assay [2], in [3], in [4], in assay [5] and in assay [6] was above 100 µM throughout. In addition, the TGI in assay [7], in assay [8], in [10], in assay [11], in [12] and in assay [13] was above 100 µM each time. Besides, the TGI in assay [14], in assay [15], in assay [16] and in [17] was above 100 µM in each case.

Take `O=C(/C=C/c1ccc2c(c1)OCO2)CC(=O)/C=C/c1ccc2c(c1)OCO2`: the TGI in assay [2] was above 100 µM; in assay [4], above 100 µM; in assay [5], above 100 µM; in assay [6] it was above 100 µM; in [7] it was 68.2 µM; in assay [8], above 100 µM. The TGI in [9], in [10], in assay [18], in assay [11], in assay [13] and in [14] was above 100 µM each time. Further, the TGI in assay [16] and in assay [17] was above 100 µM each time.
